Data from patent US4016159A, “Acylamino-cephem-carboxylic acids containing an amidino or guanidino group in the molecule” (Hoechst Aktiengesellschaft, priority 1973, dated 1977).
≈ marks a conversion by molar mass, not a printed value.

How the values were obtained:
Format in all cases: cell-based
[1] = system: Staphylococcus aureus 285; assay: Minimum inhibition concentration (MIC), Table 1; conditions: for MIC: Staphylococcus aureus, 285, Germ: Staphylococcus aureus 285, read-out: Minimum inhibition concentration (MIC)
Source text: (§1) Minimum inhibition concentration (MIC) in γ/ml
Germ: Staphylococcus aureus 285

Proteus mirabilis = assay: Minimum inhibition concentration (MIC), Table 2; conditions: Germ: Proteus mirabilis; read-out: Minimum inhibition concentration (MIC)
Source text: Minimum inhibition concentration (MIC) in /ml

Streptococcus pyogenes A = assay: Minimum inhibition concentration (MIC), Table 3; conditions: Germ: Streptococcus pyogenes A; for MIC: read-out: Minimum inhibition concentration MIC
Source text: Minimum inhibition concentration MIC in γ/ml
Germ: Streptococcus pyogenes A

Streptococcus D = assay: Minimum inhibition concentration (MIC), Table 4; conditions: Germ: Streptococcus D; for MIC: Streptococcus, read-out: Minimum inhibition concentration (MIC)
Source text: as §1

[2] = system: Staphylococcus aureus SG 511; assay: Minimum inhibition concentration (MIC), Table 5; conditions: Staphylococcus aureus, SG511, Germ: Staphylococcus aureus SG 511; read-out: Minimum inhibition concentration (MIC)
Source text: as §1
Germ: Staphylococcus aureus SG 511

SMILES | MIC [1] [µg/mL] | MIC (Proteus mirabilis) [µg/mL] | MIC (Streptococcus pyogenes A) [µg/mL] | MIC (Streptococcus D) [µg/mL] | MIC [2] [µg/mL] | Minimum inhibition concentration (MIC) ([1]; Germ: Staphylococcus aureus 285) [µg/mL] | Minimum inhibition concentration (MIC) (Streptococcus pyogenes A) [µg/mL] | Minimum inhibition concentration (MIC) (Streptococcus D) [µg/mL]
Cc1n[nH]c(SCC2=C(C(=O)O)N3C(=O)C(NC(=O)Cc4ccc(C(=N)N)cc4)C3SC2)n1 (centres unmarked) [Example 23, 3-[(5-methyl-1,2,4-triazole-3-yl)-thiomethyl]-7-(4-amidino-phenylacetamido)-Δ 3-cephem-4-carboxylic acid] | 1.6 to 2.5 (≈ 3.28 to 5.13 µM) | 25 (≈ 51.3 µM) | – | – | – | – | – | –
N=C(N)c1ccc(CC(=O)NC2C(=O)N3C(C(=O)O)=C(CSc4nc[nH]n4)CSC23)cc1 (centres unmarked) [Example 24, 3-[(1,2,4-triazole-3-yl)-thiomethyl]-7-(4-amidino-phenylacetamido)-Δ3-cephem-4-carboxylic acid] | 0.5 to 1.25 (≈ 1.06 to 2.64 µM) | 25 (≈ 52.8 µM) | – | – | – | – | – | –
CSc1nc(SCC2=C(C(=O)O)N3C(=O)C(NC(=O)Cc4ccc(C5=NCCCN5)cc4)C3SC2)nc(-c2ccccc2)n1 (centres unmarked) [Example 69, 3-[(4-methylmercapto-6-phenyl-1,3,5-triazine-2-yl)-thiomethyl]-7-[4-(1,4,5,6-tetrahydropyrimide-2-yl)-phenyl-acetamido]-Δ 3-cephem-4-carboxylicacid] | 0.156 to 0.391 (≈ 0.241 to 0.604 µM) | – | 0.000391 to 0.0078 (≈ 0.000604 to 0.012 µM) | 10 to 50 (≈ 15.4 to 77.2 µM) | 0.0196 to 0.0391 (≈ 0.0303 to 0.0604 µM) | – | – | –
O=C(Cc1ccc(C2=NCCCN2)cc1)NC1C(=O)N2C(C(=O)O)=C(CSc3nnnn3-c3ccccc3)CSC12 (centres unmarked) [Example 71, 3-[(1-phenyl-1-H-tetrazole-5-yl)-thiomethyl]-7-[4-(1,4,5,6-tetrahydropyrimide-2-yl)-phenyl-acetamido]-Δ 3-cephem-4-carboxylic acid] | 0.5 to 1.25 (≈ 0.846 to 2.12 µM) | – | 0.000391 to 0.0078 (≈ 0.000662 to 0.0132 µM) | 10 to 50 (≈ 16.9 to 84.6 µM) | 0.0625 to 0.078 (≈ 0.106 to 0.132 µM) | – | – | –
O=C(COc1ccc(C2=NCCN2)cc1)NC1C(=O)N2C(C(=O)O)=C(CSc3nncs3)CSC12 (centres unmarked) [Example 73, 3-[(1,3,4-thiadiazole-2-yl)-thiomethyl]-7-[4-(imidazoline-2-yl)-phenoxyacetamido]-Δ 3-cephem-4-carboxylic acid] | 0.5 to 1.25 (≈ 0.939 to 2.35 µM) | – | 0.000391 to 0.0078 (≈ 0.000734 to 0.0146 µM) | 10 to 50 (≈ 18.8 to 93.9 µM) | 0.0625 to 0.078 (≈ 0.117 to 0.146 µM) | – | – | –
O=C(Cc1ccc(C2=NCCCN2)cc1)NC1C(=O)N2C(C(=O)O)=C(CSc3nnc(-c4ccccc4)s3)CSC12 (centres unmarked) [Example 80, 3-[(5-phenyl-1,3,4,-thiadiazole-2-yl)-thiomethyl]-7-[4-(1,4,5,6-tetrahydropyrimide-2-yl)-phenylacetamido]-Δ 3-cephem-4-carboxylic acid] | 0.156 to 0.391 (≈ 0.257 to 0.644 µM) | – | 0.000391 to 0.0078 (≈ 0.000644 to 0.0129 µM) | 10 to 50 (≈ 16.5 to 82.4 µM) | 0.0625 to 0.078 (≈ 0.103 to 0.129 µM) | – | – | –
O=C(Cc1ccc(C2=NCCCN2)cc1)NC1C(=O)N2C(C(=O)O)=C(CSc3nc4ccccc4s3)CSC12 (centres unmarked) [Example 85, 3-[benzothiazole-2-yl-thiomethyl]-7-[4-(1,4,5,6-tetrahydropyrimide-2-yl)-phenylacetamido]-Δ 3-cephem-4-carboxylic acid] | 0.156 to 0.391 (≈ 0.269 to 0.674 µM) | – | 0.000391 to 0.0078 (≈ 0.000674 to 0.0135 µM) | 10 to 50 (≈ 17.2 to 86.2 µM) | 0.0625 to 0.078 (≈ 0.108 to 0.135 µM) | – | – | –
N=C(N)c1ccc(CC(=O)NC2C(=O)N3C(C(=O)O)=C(CSc4nc5ccccc5s4)CSC23)cc1 (centres unmarked) [Example 92, 3-[benzothiazole-2-yl-thiomethyl]-7-[4-amidino-phenylacetamido]-Δ 3-cephem-4-carboxylic acid] | 0.156 to 0.391 (≈ 0.289 to 0.725 µM) | – | 0.000391 to 0.0078 (≈ 0.000725 to 0.0145 µM) | 0.196 to 6.25 (≈ 0.363 to 11.6 µM) | 0.0625 to 0.078 (≈ 0.116 to 0.145 µM) | – | – | –
Nn1cnnc1SCC1=C(C(=O)O)N2C(=O)C(NC(=O)Cc3ccc(C4=NCCCN4)cc3)C2SC1 (centres unmarked) [Example 100, 3-[(4-amino-4H-1,2,4-triazole-3-yl)-thiomethyl]-7-[4-(1,4,5,6-tetrahydropyrimide-2-yl)-phenylacetamido]-Δ3-cephem-4-carboxylic acid] | – | 3.1 to 12.5 (≈ 5.86 to 23.6 µM) | 0.008 to 0.0156 (≈ 0.0151 to 0.0295 µM) | – | – | – | – | –
Cc1nnc(SCC2=C(C(=O)O)N3C(=O)C(NC(=O)Cc4ccc(C5=NCCCN5)cc4)C3SC2)n1N (centres unmarked) [Example 101, 3-[(4-amino-5-methyl-1,2,4-triazole-3-yl)-thiomethyl]-7-[4-(1,4,5,6-tetrahydropyrimide-2-yl)-phenylacetamido]-Δ3-cephem-4-carboxylic acid] | 0.5 to 1.25 (≈ 0.921 to 2.3 µM) | 25 (≈ 46.1 µM) | – | – | – | – | – | –
O=C(Cc1ccc(C2=NCCCN2)cc1)NC1C(=O)N2C(C(=O)O)=C(CSc3nnc(-c4ccccc4)o3)CSC12 (centres unmarked) [Example 103, 3-[(5-phenyl-1,3,4-oxadiazole-2-yl)-thiomethyl]-7-[4-(1,4,5,6-tetrahydropyrimide-2-yl)-phenylacetamido]-Δ3-cephem-4-carboxylic acid] | – | – | – | – | 0.0625 to 0.078 (≈ 0.106 to 0.132 µM) | 0.156 to 0.391 | 0.000391 to 0.0078 | 10 to 50
O=C(Cc1ccc(C2=NCCCN2)cc1)NC1C(=O)N2C(C(=O)O)=C(CSc3ccc([N+](=O)[O-])cn3)CSC12 (centres unmarked) [Example 105, 3-[(5-nitropyridine-2-yl)-thiomethyl]-7-[4-(1,4,5,6-tetrahydropyrimide-2-yl)-phenylacetamido]-Δ3-cephem-4-carboxylic acid] | 0.156 to 0.391 (≈ 0.274 to 0.688 µM) | – | 0.000391 to 0.0078 (≈ 0.000688 to 0.0137 µM) | 10 to 50 (≈ 17.6 to 87.9 µM) | 0.0625 to 0.078 (≈ 0.11 to 0.137 µM) | – | – | –
Cc1nc(SCC2=C(C(=O)O)N3C(=O)C(NC(=O)Cc4ccc(C5=NCCCN5)cc4)C3SC2)sc1C (centres unmarked) [Example 106, 3-[(4,5-dimethylthiazole-2-yl)-thiomethyl]-7-[4-(1,4,5,6-tetrahydropyrimide-2-yl)-phenylacetamido]-Δ3-cephem-4-carboxylic acid] | 0.156 to 0.391 (≈ 0.28 to 0.701 µM) | – | 0.000391 to 0.0078 (≈ 0.000701 to 0.014 µM) | 10 to 50 (≈ 17.9 to 89.7 µM) | 0.0625 to 0.078 (≈ 0.112 to 0.14 µM) | – | – | –
Cc1nsc(SCC2=C(C(=O)O)N3C(=O)C(NC(=O)Cc4ccc(C5=NCCCN5)cc4)C3SC2)n1 (centres unmarked) [Example 108, 3-[(3-methyl-1,2,4-thiadiazole-5-yl)-thiomethyl]-7-[4-(1,4,5,6-tetrahydropyrimide-22-yl)-phenylacetamido]-Δ3-cephem-4-carboxylic acid] | 0.156 to 0.391 (≈ 0.286 to 0.718 µM) | – | 0.000391 to 0.0078 (≈ 0.000718 to 0.0143 µM) | 10 to 50 (≈ 18.4 to 91.8 µM) | 0.0625 to 0.078 (≈ 0.115 to 0.143 µM) | – | – | –
O=C(Cc1ccc(C2=NCCCN2)cc1)NC1C(=O)N2C(C(=O)O)=C(CSc3nc4ccccc4o3)CSC12 (centres unmarked) [Example 109, 3-[(benzoxazole-2-yl)-thiomethyl]-7-[4-(1,4,5,6-tetrahydropyrimide-2-yl)-phenylacetamido]-Δ3-cephem-4-carboxylic acid] | 0.156 to 0.391 (≈ 0.277 to 0.694 µM) | – | 0.000391 to 0.0078 (≈ 0.000694 to 0.0138 µM) | 10 to 50 (≈ 17.7 to 88.7 µM) | 0.0625 to 0.078 (≈ 0.111 to 0.138 µM) | – | – | –
CC(C)(C)c1csc(SCC2=C(C(=O)O)N3C(=O)C(NC(=O)Cc4ccc(C5=NCCN5)cc4)C3SC2)n1 (centres unmarked) [Example 111, 3-[(4-tert.butyl-thiazole-2-yl)-thiomethyl]-7-[-4-(imidazoline-2-yl)-phenylacetamido]-Δ3-cephem-4-carboxylic acid] | 0.156 to 0.391 (≈ 0.273 to 0.684 µM) | – | 0.000391 to 0.0078 (≈ 0.000684 to 0.0136 µM) | 0.196 to 6.25 (≈ 0.343 to 10.9 µM) | 0.0625 to 0.078 (≈ 0.109 to 0.136 µM) | – | – | –
CC(C)c1csc(SCC2=C(C(=O)O)N3C(=O)C(NC(=O)Cc4ccc(C5=NCCN5)cc4)C3SC2)n1 (centres unmarked) [Example 112, 3-[(4-isopropyl-thiazole-2-yl)-thiomethyl]-7-[4-(imidazoline-2-yl)-phenylacetamido]-Δ3-cephem-4-carboxylic acid] | 0.156 to 0.391 (≈ 0.28 to 0.701 µM) | – | 0.000391 to 0.0078 (≈ 0.000701 to 0.014 µM) | 0.196 to 6.25 (≈ 0.351 to 11.2 µM) | 0.0625 to 0.078 (≈ 0.112 to 0.14 µM) | – | – | –
CCCCc1csc(SCC2=C(C(=O)O)N3C(=O)C(NC(=O)Cc4ccc(C5=NCCN5)cc4)C3SC2)n1 (centres unmarked) [Example 113] | 0.156 to 0.391 (≈ 0.273 to 0.684 µM) | – | 0.000391 to 0.0078 (≈ 0.000684 to 0.0136 µM) | 0.196 to 6.25 (≈ 0.343 to 10.9 µM) | 0.0625 to 0.078 (≈ 0.109 to 0.136 µM) | – | – | –
CCCc1csc(SCC2=C(C(=O)O)N3C(=O)C(NC(=O)Cc4ccc(C5=NCCN5)cc4)C3SC2)n1 (centres unmarked) [Example 114, 3-[(4-n-propyl-thiazole-2-yl)-thiomethyl]-7-[4-(imidazoline-2-yl)-phenylacetamido]-Δ3-cephem-4-carboxylic acid] | 0.156 to 0.391 (≈ 0.28 to 0.701 µM) | – | 0.000391 to 0.0078 (≈ 0.000701 to 0.014 µM) | 0.196 to 6.25 (≈ 0.351 to 11.2 µM) | 0.0625 to 0.078 (≈ 0.112 to 0.14 µM) | – | – | –
O=C(Cc1ccc(C2=NCCN2)cc1)NC1C(=O)N2C(C(=O)O)=C(CSc3nnc(-c4ccccc4)o3)CSC12 (centres unmarked) [Example 116, 3-[(5-phenyl-1,3,4-oxadiazole-2-yl)-thiomethyl]-7-[4-(imidazoline-2-yl)-phenylacetamido]-Δ3-cephem-4-carboxylic acid] | 0.5 to 1.25 (≈ 0.867 to 2.17 µM) | – | 0.000391 to 0.0078 (≈ 0.000678 to 0.0135 µM) | 10 to 50 (≈ 17.3 to 86.7 µM) | 0.0625 to 0.078 (≈ 0.108 to 0.135 µM) | – | – | –
O=C(Cc1ccc(C2=NCCN2)cc1)NC1C(=O)N2C(C(=O)O)=C(CSc3nc(-c4ccccc4)cs3)CSC12 (centres unmarked) [Example 117, 3-[(4-phenyl-thiazole-2-yl)-thiomethyl]-7-[4-(imidazoline-2-yl)-phenylacetamido]-Δ3-cephem-4-carboxylic acid] | 0.5 to 1.25 (≈ 0.845 to 2.11 µM) | – | 0.000391 to 0.0078 (≈ 0.000661 to 0.0132 µM) | 10 to 50 (≈ 16.9 to 84.5 µM) | 0.0625 to 0.078 (≈ 0.106 to 0.132 µM) | – | – | –
CCc1nnc(SCC2=C(C(=O)O)N3C(=O)C(NC(=O)Cc4ccc(C(=N)N)cc4)C3SC2)s1 (centres unmarked) [Example 122, 3-[(5-ethyl-1,3,4-thiadiazole-2-yl)-thiomethyl]-7-(4-amidino-phenylacetamido)-Δ3-cephem-4-carboxylic acid] | 0.5 to 1.25 (≈ 0.964 to 2.41 µM) | – | 0.008 to 0.0156 (≈ 0.0154 to 0.0301 µM) | 10 to 50 (≈ 19.3 to 96.4 µM) | 0.0625 to 0.078 (≈ 0.121 to 0.15 µM) | – | – | –
